Laboratory results reported in ChEMBL document CHEMBL1140040, “Synthesis and cytotoxic activity of some novel polycyclic gamma-butyrolactones” (Bioorg Med Chem Lett, 2008).

Tests used:
[1] = tested on: COLO 205; experiment: Cytotoxicity against human COLO205 cells assessed as age growth inhibition at 50 uM after 48 hrs by sulforhodamine B assay; assay type: functional; settings: COLO 205, 48 h, read-out: GI
[2] = tested on: COLO 205; experiment: Cytotoxicity against human COLO205 cells assessed as age growth inhibition at 100 uM after 48 hrs by sulforhodamine B assay; assay type: functional; settings: COLO 205, 48 h, read-out: GI
[3] = tested on: IGROV-1; experiment: Cytotoxicity against human IGROV1 cells assessed as age growth inhibition at 10 uM after 48 hrs by sulforhodamine B assay; assay type: functional; settings: IGROV-1, 48 h, read-out: GI
[4] = tested on: IGROV-1; experiment: Cytotoxicity against human IGROV1 cells assessed as age growth inhibition at 50 uM after 48 hrs by sulforhodamine B assay; assay type: functional; settings: IGROV-1, 48 h, read-out: GI
[5] = tested on: IGROV-1; experiment: Cytotoxicity against human IGROV1 cells assessed as age growth inhibition at 100 uM after 48 hrs by sulforhodamine B assay; assay type: functional; settings: IGROV-1, 48 h, read-out: GI
[6] = tested on: SK-OV-3; experiment: Cytotoxicity against human SKOV3 cells assessed as age growth inhibition at 10 uM after 48 hrs by sulforhodamine B assay; assay type: functional; settings: SK-OV-3, 48 h, read-out: GI
[7] = tested on: SK-OV-3; experiment: Cytotoxicity against human SKOV3 cells assessed as age growth inhibition at 50 uM after 48 hrs by sulforhodamine B assay; assay type: functional; settings: SK-OV-3, 48 h, read-out: GI
[8] = tested on: SK-OV-3; experiment: Cytotoxicity against human SKOV3 cells assessed as age growth inhibition at 100 uM after 48 hrs by sulforhodamine B assay; assay type: functional; settings: SK-OV-3, 48 h, read-out: GI
[9] = tested on: DU-145; experiment: Cytotoxicity against human DU145 cells assessed as age growth inhibition at 10 uM after 48 hrs by sulforhodamine B assay; assay type: functional; settings: DU-145, 48 h, read-out: GI
[10] = tested on: DU-145; experiment: Cytotoxicity against human DU145 cells assessed as age growth inhibition at 50 uM after 48 hrs by sulforhodamine B assay; assay type: functional; settings: DU-145, 48 h, read-out: GI
[11] = tested on: DU-145; experiment: Cytotoxicity against human DU145 cells assessed as age growth inhibition at 100 uM after 48 hrs by sulforhodamine B assay; assay type: functional; settings: DU-145, 48 h, read-out: GI
[12] = tested on: HEp-2; experiment: Cytotoxicity against human HEP2 cells assessed as age growth inhibition at 10 uM after 48 hrs by sulforhodamine B assay; assay type: functional; settings: HEp-2, 48 h, read-out: GI
[13] = tested on: HEp-2; experiment: Cytotoxicity against human HEP2 cells assessed as age growth inhibition at 50 uM after 48 hrs by sulforhodamine B assay; assay type: functional; settings: HEp-2, 48 h, read-out: GI
[14] = tested on: HEp-2; experiment: Cytotoxicity against human HEP2 cells assessed as age growth inhibition at 100 uM after 48 hrs by sulforhodamine B assay; assay type: functional; settings: HEp-2, 48 h, read-out: GI
[15] = tested on: SF-295; experiment: Cytotoxicity against human SF295 cells assessed as age growth inhibition at 10 uM after 48 hrs by sulforhodamine B assay; assay type: functional; settings: SF-295, 48 h, read-out: GI
[16] = tested on: SF-295; experiment: Cytotoxicity against human SF295 cells assessed as age growth inhibition at 50 uM after 48 hrs by sulforhodamine B assay; assay type: functional; settings: SF-295, 48 h, read-out: GI
[17] = tested on: SF-295; experiment: Cytotoxicity against human SF295 cells assessed as age growth inhibition at 100 uM after 48 hrs by sulforhodamine B assay; assay type: functional; settings: SF-295, 48 h, read-out: GI
[18] = tested on: A549; experiment: Antiproliferative activity against human A549 cells after 48 hrs by sulforhodamine B assay; assay type: functional, cell-based; settings: A549, 48 h
[19] = tested on: HOP-62; experiment: Antiproliferative activity against human HOP62 cells after 48 hrs by sulforhodamine B assay; assay type: functional, cell-based; settings: HOP-62, 48 h
[20] = tested on: HCT-15; experiment: Antiproliferative activity against human HCT15 cells after 48 hrs by sulforhodamine B assay; assay type: functional, cell-based; settings: HCT-15, 48 h
[21] = tested on: COLO 205; experiment: Antiproliferative activity against human COLO205 cells after 48 hrs by sulforhodamine B assay; assay type: functional, cell-based; settings: COLO 205, 48 h
[22] = tested on: IGROV-1; experiment: Antiproliferative activity against human IGROV1 cells after 48 hrs by sulforhodamine B assay; assay type: functional, cell-based; settings: IGROV-1, 48 h
[23] = tested on: SK-OV-3; experiment: Antiproliferative activity against human SKOV3 cells after 48 hrs by sulforhodamine B assay; assay type: functional, cell-based; settings: SK-OV-3, 48 h
[24] = tested on: DU-145; experiment: Antiproliferative activity against human DU145 cells after 48 hrs by sulforhodamine B assay; assay type: functional, cell-based; settings: DU-145, 48 h
[25] = tested on: HEp-2; experiment: Antiproliferative activity against human HEP2 cells after 48 hrs by sulforhodamine B assay; assay type: functional, cell-based; settings: HEp-2, 48 h
[26] = tested on: SF-295; experiment: Antiproliferative activity against human SF295 cells after 48 hrs by sulforhodamine B assay; assay type: functional, cell-based; settings: SF-295, 48 h
[27] = tested on: A549; experiment: Cytotoxicity against human A549 cells assessed as age growth inhibition at 10 uM after 48 hrs by sulforhodamine B assay; assay type: functional; settings: A549, 48 h, read-out: GI
[28] = tested on: A549; experiment: Cytotoxicity against human A549 cells assessed as age growth inhibition at 50 uM after 48 hrs by sulforhodamine B assay; assay type: functional; settings: A549, 48 h, read-out: GI
[29] = tested on: A549; experiment: Cytotoxicity against human A549 cells assessed as age growth inhibition at 100 uM after 48 hrs by sulforhodamine B assay; assay type: functional; settings: A549, 48 h, read-out: GI
[30] = tested on: HOP-62; experiment: Cytotoxicity against human HOP62 cells assessed as age growth inhibition at 10 uM after 48 hrs by sulforhodamine B assay; assay type: functional; settings: HOP-62, 48 h, read-out: GI
[31] = tested on: HOP-62; experiment: Cytotoxicity against human HOP62 cells assessed as age growth inhibition at 50 uM after 48 hrs by sulforhodamine B assay; assay type: functional; settings: HOP-62, 48 h, read-out: GI
[32] = tested on: HOP-62; experiment: Cytotoxicity against human HOP62 cells assessed as age growth inhibition at 100 uM after 48 hrs by sulforhodamine B assay; assay type: functional; settings: HOP-62, 48 h, read-out: GI
[33] = tested on: HCT-15; experiment: Cytotoxicity against human HCT15 cells assessed as age growth inhibition at 10 uM after 48 hrs by sulforhodamine B assay; assay type: functional; settings: HCT-15, 48 h, read-out: GI
[34] = tested on: HCT-15; experiment: Cytotoxicity against human HCT15 cells assessed as age growth inhibition at 50 uM after 48 hrs by sulforhodamine B assay; assay type: functional; settings: HCT-15, 48 h, read-out: GI
[35] = tested on: HCT-15; experiment: Cytotoxicity against human HCT15 cells assessed as age growth inhibition at 100 uM after 48 hrs by sulforhodamine B assay; assay type: functional; settings: HCT-15, 48 h, read-out: GI
[36] = tested on: COLO 205; experiment: Cytotoxicity against human COLO205 cells assessed as age growth inhibition at 10 uM after 48 hrs by sulforhodamine B assay; assay type: functional; settings: COLO 205, 48 h, read-out: GI
[37] = tested on: COLO 205; experiment: Cytotoxicity against human COLO205 cells assessed as age growth inhibition at 20 uM after 48 hrs by sulforhodamine B assay; assay type: functional; settings: COLO 205, 48 h, read-out: GI
[38] = tested on: IGROV-1; experiment: Cytotoxicity against human IGROV1 cells assessed as age growth inhibition at 20 uM after 48 hrs by sulforhodamine B assay; assay type: functional; settings: IGROV-1, 48 h, read-out: GI
[39] = tested on: SK-OV-3; experiment: Cytotoxicity against human SKOV3 cells assessed as age growth inhibition at 20 uM after 48 hrs by sulforhodamine B assay; assay type: functional; settings: SK-OV-3, 48 h, read-out: GI
[40] = tested on: DU-145; experiment: Cytotoxicity against human DU145 cells assessed as age growth inhibition at 20 uM after 48 hrs by sulforhodamine B assay; assay type: functional; settings: DU-145, 48 h, read-out: GI
[41] = tested on: HEp-2; experiment: Cytotoxicity against human HEP2 cells assessed as age growth inhibition at 20 uM after 48 hrs by sulforhodamine B assay; assay type: functional; settings: HEp-2, 48 h, read-out: GI
[42] = tested on: SF-295; experiment: Cytotoxicity against human SF295 cells assessed as age growth inhibition at 20 uM after 48 hrs by sulforhodamine B assay; assay type: functional; settings: SF-295, 48 h, read-out: GI
[43] = tested on: A549; experiment: Cytotoxicity against human A549 cells assessed as age growth inhibition at 20 uM after 48 hrs by sulforhodamine B assay; assay type: functional; settings: A549, 48 h, read-out: GI
[44] = tested on: HOP-62; experiment: Cytotoxicity against human HOP62 cells assessed as age growth inhibition at 20 uM after 48 hrs by sulforhodamine B assay; assay type: functional; settings: HOP-62, 48 h, read-out: GI
[45] = tested on: HCT-15; experiment: Cytotoxicity against human HCT15 cells assessed as age growth inhibition at 20 uM after 48 hrs by sulforhodamine B assay; assay type: functional; settings: HCT-15, 48 h, read-out: GI

## CC1(C)CCC[C@@]2(C)C1=C[C@H]1C(=O)O[C@H](c3ccc(Br)cc3)[C@H]12
[1]
  inhibition of growth at 50 µM: 14%
[2]
  inhibition of growth at 100 µM: 32%
[3]
  inhibition of growth at 10 µM: 7%
[4]
  inhibition of growth at 50 µM: 26%
[5]
  inhibition of growth at 100 µM: 30%
[6]
  inhibition of growth at 10 µM: 6%
[7]
  inhibition of growth at 50 µM: 28%
[8]
  inhibition of growth at 100 µM: 52%
[9]
  inhibition of growth at 10 µM: 21%
[10]
  inhibition of growth at 50 µM: 27%
[11]
  inhibition of growth at 100 µM: 28%
[12]
  inhibition of growth at 10 µM: 3%
[13]
  inhibition of growth at 50 µM: 18%
[14]
  inhibition of growth at 100 µM: 22%
[15]
  inhibition of growth at 10 µM: 0%
[16]
  inhibition of growth at 50 µM: 18%
[17]
  inhibition of growth at 100 µM: 21%
[18]
  IC50: > 100 µM
[19]
  IC50: 49.5 µM
[20]
  IC50: > 100 µM
[21]
  IC50: > 100 µM
[22]
  IC50: > 100 µM
[23]
  IC50: 95.1 µM
[24]
  IC50: > 100 µM
[25]
  IC50: > 100 µM
[26]
  IC50: > 100 µM
[27]
  inhibition of growth at 10 µM: 8%
[28]
  inhibition of growth at 50 µM: 10%
[29]
  inhibition of growth at 100 µM: 26%
[30]
  inhibition of growth at 10 µM: 0%
[31]
  inhibition of growth at 50 µM: 55%
[32]
  inhibition of growth at 100 µM: 66%
[33]
  inhibition of growth at 10 µM: 7%
[34]
  inhibition of growth at 50 µM: 32%
[35]
  inhibition of growth at 100 µM: 40%
[36]
  inhibition of growth at 10 µM: 14%

## CC1(C)CCC[C@@]2(C)C1=C[C@H]1C(=O)O[C@H](c3ccc(C#N)cc3)[C@H]12
[1]
  inhibition of growth at 50 µM: 24%
[2]
  inhibition of growth at 100 µM: 24%
[3]
  inhibition of growth at 10 µM: 6%
[4]
  inhibition of growth at 50 µM: 25%
[5]
  inhibition of growth at 100 µM: 29%
[6]
  inhibition of growth at 10 µM: 17%
[7]
  inhibition of growth at 50 µM: 25%
[8]
  inhibition of growth at 100 µM: 27%
[9]
  inhibition of growth at 10 µM: 16%
[10]
  inhibition of growth at 50 µM: 22%
[11]
  inhibition of growth at 100 µM: 25%
[12]
  inhibition of growth at 10 µM: 5%
[13]
  inhibition of growth at 50 µM: 18%
[14]
  inhibition of growth at 100 µM: 19%
[15]
  inhibition of growth at 10 µM: 12%
[16]
  inhibition of growth at 50 µM: 17%
[17]
  inhibition of growth at 100 µM: 20%
[18]
  IC50: > 100 µM
[19]
  IC50: > 100 µM
[20]
  IC50: > 100 µM
[21]
  IC50: > 100 µM
[22]
  IC50: > 100 µM
[23]
  IC50: > 100 µM
[24]
  IC50: > 100 µM
[25]
  IC50: > 100 µM
[26]
  IC50: > 100 µM
[27]
  inhibition of growth at 10 µM: 15%
[28]
  inhibition of growth at 50 µM: 24%
[29]
  inhibition of growth at 100 µM: 25%
[30]
  inhibition of growth at 10 µM: 5%
[31]
  inhibition of growth at 50 µM: 9%
[32]
  inhibition of growth at 100 µM: 18%
[33]
  inhibition of growth at 10 µM: 14%
[34]
  inhibition of growth at 50 µM: 25%
[35]
  inhibition of growth at 100 µM: 30%
[36]
  inhibition of growth at 10 µM: 2%

## O=c1[nH]cc(F)c(=O)[nH]1 [FLUOROURACIL]
[37]
  inhibition of growth at 20 µM: 27%
[38]
  inhibition of growth at 20 µM: 29%
[39]
  inhibition of growth at 20 µM: 46%
[40]
  inhibition of growth at 20 µM: 29%
[41]
  inhibition of growth at 20 µM: 77%
[42]
  inhibition of growth at 20 µM: 11%
[43]
  inhibition of growth at 20 µM: 57%
[44]
  inhibition of growth at 20 µM: 37%
[45]
  inhibition of growth at 20 µM: 30%
